Measured values reported in ChEMBL document CHEMBL2146442, “High-affinity and selective dopamine D₃ receptor full agonists” (Bioorg Med Chem Lett, 2012).

Legend:
[1] = Displacement of [3H]Spiperone from dopamine D2 like receptor in rat brain homogenates; format: tissue-based
[2] = Displacement of [3H]SCH23390 from dopamine D1 like receptor in rat brain homogenates; format: tissue-based
[3] = species: Rattus norvegicus; experiment: Selectivity ratio of Ki for dopamine D1 like receptor in rat brain homogenates to Ki for dopamine D3 receptor in rat brain homogenates; format: tissue-based
[4] = target: D(3) dopamine receptor (Rattus norvegicus, UniProt P19020); experiment: Displacement of [3H]-R(+)-7-OHDPAT from dopamine D3 receptor in rat brain homogenates; format: tissue-based
Sequence of D(3) dopamine receptor (P19020 whole entry): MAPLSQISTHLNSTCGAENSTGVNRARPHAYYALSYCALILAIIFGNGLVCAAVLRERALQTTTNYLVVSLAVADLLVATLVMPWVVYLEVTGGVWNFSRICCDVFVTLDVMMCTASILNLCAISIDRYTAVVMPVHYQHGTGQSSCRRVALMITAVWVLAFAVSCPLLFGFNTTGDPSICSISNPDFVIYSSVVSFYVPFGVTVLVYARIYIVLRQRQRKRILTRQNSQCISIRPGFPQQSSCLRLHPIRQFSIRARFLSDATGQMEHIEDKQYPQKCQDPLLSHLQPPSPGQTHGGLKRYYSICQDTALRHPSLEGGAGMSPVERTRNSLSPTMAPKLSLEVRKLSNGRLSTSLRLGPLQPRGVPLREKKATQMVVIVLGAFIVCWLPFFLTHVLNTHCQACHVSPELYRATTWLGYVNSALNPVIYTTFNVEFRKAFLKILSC

[5] = Selectivity ratio of dopamine D1 like receptor to dopamine D3 receptor
[6] = Selectivity ratio of dopamine D2 receptor to dopamine D3 receptor

Row | Structure (SMILES) | Ki [1] | Ki [2] | Ratio Ki [3] | Ki [4] | Selectivity ratio [5] | Selectivity ratio [6]
1 | CCCN(CC[C@H]1CC[C@H](NC(=O)c2ccc(-c3noc(CC)n3)cc2)CC1)[C@H]1CCc2nc(N)sc2C1 | 328 nM | 17700 nM | 8380 | 2.1 nM |  | 
2 | CCCN(CC[C@H]1CC[C@H](NS(=O)(=O)c2ccccc2)CC1)[C@H]1CCc2nc(N)sc2C1 | 57 nM | 23400 nM | 29700 | 0.79 nM |  | 
3 | CCCN(CC[C@H]1CC[C@H](NC(=O)/C=C/c2cccc(OC)c2)CC1)[C@H]1CCc2nc(N)sc2C1 | 122 nM | 8890 nM | 953 | 9.3 nM |  | 
4 | CCCN(CC[C@H]1CC[C@H](NC(=O)c2ccc(-c3noc(C4CC4)n3)cc2)CC1)[C@H]1CCc2nc(N)sc2C1 | 633 nM | 11400 nM | 3240 | 3.5 nM |  | 
5 | CCCN(CC[C@H]1CC[C@H](NS(=O)(=O)c2ccc(C(C)C)cc2)CC1)[C@H]1CCc2nc(N)sc2C1 | 133 nM | 8150 nM | 1810 | 4.5 nM |  | 
6 | CCCN(CC[C@H]1CC[C@H](NS(=O)(=O)c2cccc3ccccc23)CC1)[C@H]1CCc2nc(N)sc2C1 | 31 nM | 4670 nM | 3160 | 1.5 nM |  | 
7 | CCCN[C@H]1CCc2nc(N)sc2C1 [PRAMIPEXOLE] |  | > 100000 nM |  |  |  | 
8 | CCCN(CC[C@H]1CC[C@H](NC(=O)c2cccc3cnccc23)CC1)[C@H]1CCc2nc(N)sc2C1 | 64 nM | 26400 nM | 4500 | 5.9 nM |  | 
9 | CCCN(CC[C@H]1CC[C@H](NC(=O)/C=C/c2ccccc2OC)CC1)[C@H]1CCc2nc(N)sc2C1 | 102 nM | 7920 nM | 983 | 8.1 nM |  | 
10 | CCCN(CC[C@H]1CC[C@H](NS(=O)(=O)c2cnccc2Cl)CC1)[C@H]1CCc2nc(N)sc2C1 |  | 10700 nM |  | 0.93 nM |  | 
11 | O=C(NCCCCN1CCN(c2cccc(Cl)c2Cl)CC1)c1ccc2c(c1)Cc1ccccc1-2 |  |  |  |  | > 1000 | 100
12 | CCCN(CC[C@H]1CC[C@H](NS(=O)(=O)c2cccc(C)c2)CC1)[C@H]1CCc2nc(N)sc2C1 | 62 nM | 8400 nM | 9470 | 0.89 nM |  | 
13 | O=C(NC/C=C/CN1CCN(c2cccc(Cl)c2Cl)CC1)c1ccc(-c2ccccn2)cc1 |  |  |  |  | > 1000 | 100
14 | CCCN(CC[C@H]1CC[C@H](NC(=O)/C=C/c2ccc(OC)cc2)CC1)[C@H]1CCc2nc(N)sc2C1 | 94 nM | 8030 nM | 1200 | 6.7 nM |  | 
15 | CCCN(CC[C@H]1CC[C@H](NC(=O)c2ccccc2-n2cccn2)CC1)[C@H]1CCc2nc(N)sc2C1 | 45 nM | 46900 nM | 23800 | 2 nM |  | 
16 | CCCN(CC[C@H]1CC[C@H](NC(=O)/C=C/c2cccc(F)c2)CC1)[C@H]1CCc2nc(N)sc2C1 | 80 nM | 6610 nM | 666 | 9.9 nM |  | 
17 | CCCN(CC[C@H]1CC[C@H](NS(=O)(=O)c2ccc(OC)cc2)CC1)[C@H]1CCc2nc(N)sc2C1 | 38 nM | 21300 nM | 27500 | 0.78 nM |  | 
18 | CCCN(CC[C@H]1CC[C@H](NC(=O)c2ccc(-c3noc(C)n3)cc2)CC1)[C@H]1CCc2nc(N)sc2C1 | 442 nM | 34600 nM | 27000 | 1.3 nM |  | 
19 | CCCN(CC[C@H]1CC[C@H](NC(=O)c2cccc3ncccc23)CC1)[C@H]1CCc2nc(N)sc2C1 | 72 nM | 44000 nM | 27100 | 1.6 nM |  | 
20 | CCCN(CC[C@H]1CC[C@H](NS(=O)(=O)c2ccc(-c3ccccc3)cc2)CC1)[C@H]1CCc2nc(N)sc2C1 | 75 nM | 1800 nM | 44 | 41 nM |  | 
21 | CCCN(CC[C@H]1CC[C@H](NS(=O)(=O)c2cccc(F)c2)CC1)[C@H]1CCc2nc(N)sc2C1 |  | 10400 nM |  | 0.72 nM |  | 
22 | CCCN(CC[C@H]1CC[C@H](NS(=O)(=O)c2ccc(Cl)cc2)CC1)[C@H]1CCc2nc(N)sc2C1 | 71 nM | 8290 nM | 8750 | 0.95 nM |  | 

Continued, values first:

Row | Ki [1] | Ki [2] | Ratio Ki [3] | Ki [4] | Selectivity ratio [5] | Selectivity ratio [6] | Structure (SMILES)
23 | 43 nM | 59700 nM | 19900 | 3 nM |  |  | CCCN(CC[C@H]1CC[C@H](NC(=O)c2cccc(-n3cncn3)c2)CC1)[C@H]1CCc2nc(N)sc2C1
24 | 32 nM | 24700 nM | 21800 | 1.1 nM |  |  | CCCN(CC[C@H]1CC[C@H](NC(=O)c2cccc(-n3ccnc3)c2)CC1)[C@H]1CCc2nc(N)sc2C1
25 | 92 nM | 10000 nM | 3510 | 2.9 nM |  |  | CCCN(CC[C@H]1CC[C@H](NC(=O)/C=C/c2ccccc2F)CC1)[C@H]1CCc2nc(N)sc2C1
26 |  |  |  |  | > 1000 | 100 | CCCN(CCN1CCN(c2ccc(-c3ccccc3)cc2)CC1)[C@H]1CCc2nc(N)sc2C1
27 | 56 nM | 14000 nM | 5960 | 2.4 nM |  |  | CCCN(CC[C@H]1CC[C@H](NC(=O)c2ccc(-n3cncn3)cc2)CC1)[C@H]1CCc2nc(N)sc2C1
28 |  | 5550 nM |  | 1.1 nM |  |  | CCCN(CC[C@H]1CC[C@H](NS(=O)(=O)c2cccc(Cl)c2)CC1)[C@H]1CCc2nc(N)sc2C1
29 | 28 nM | 8190 nM | 12900 | 0.63 nM |  |  | CCCN(CC[C@H]1CC[C@H](NS(=O)(=O)c2ccc(Cl)nc2)CC1)[C@H]1CCc2nc(N)sc2C1
30 |  |  |  |  | > 1000 | 100 | COc1ccccc1N1CCN(CC(O)CCNC(=O)c2cc3ccccc3[nH]2)CC1 (centres undefined)
31 | 14 nM | 3690 nM | 2430 | 1.5 nM |  |  | CCCN(CC[C@H]1CC[C@H](NS(=O)(=O)c2ccc3ccccc3c2)CC1)[C@H]1CCc2nc(N)sc2C1
32 | 52 nM | 14400 nM | 4870 | 3 nM |  |  | CCCN(CC[C@H]1CC[C@H](NC(=O)c2ccc(-n3cccn3)cc2)CC1)[C@H]1CCc2nc(N)sc2C1
33 | 52 nM | 5770 nM | 4640 | 1.2 nM |  |  | CCCN(CC[C@H]1CC[C@H](NC(=O)/C=C/c2cccc(Cl)c2)CC1)[C@H]1CCc2nc(N)sc2C1
34 | 491 nM | 5000 nM | 3450 | 1.5 nM |  |  | CCCN(CC[C@H]1CC[C@H](NC(=O)c2cccc(-c3noc(CC)n3)c2)CC1)[C@H]1CCc2nc(N)sc2C1
35 | 88 nM | 11300 nM | 6050 | 1.6 nM |  |  | CCCN(CC[C@H]1CC[C@H](NC(=O)c2ccc3ccccc3n2)CC1)[C@H]1CCc2nc(N)sc2C1
36 | 66 nM | 4670 nM | 4670 | 1 nM |  |  | CCCN(CC[C@H]1CC[C@H](NC(=O)/C=C/c2ccc(F)cc2)CC1)[C@H]1CCc2nc(N)sc2C1
37 | 23 nM | 37200 nM | 19900 | 1.9 nM |  |  | CCCN(CC[C@H]1CC[C@H](NC(=O)c2ccc(-n3ccnc3)cc2)CC1)[C@H]1CCc2nc(N)sc2C1
38 | 101 nM | 3150 nM | 626 | 5 nM |  |  | CCCN(CC[C@H]1CC[C@H](NS(=O)(=O)c2ccc(C(C)(C)C)cc2)CC1)[C@H]1CCc2nc(N)sc2C1
39 | 30 nM | 5440 nM | 4650 | 1.2 nM |  |  | CCCN(CC[C@H]1CC[C@H](NC(=O)/C=C/c2ccccc2Cl)CC1)[C@H]1CCc2nc(N)sc2C1
40 |  | 9480 nM |  | 0.68 nM |  |  | CCCN(CC[C@H]1CC[C@H](NS(=O)(=O)c2ccccc2Cl)CC1)[C@H]1CCc2nc(N)sc2C1
41 | 27 nM | 4030 nM | 1600 | 2.5 nM |  |  | CCCN(CC[C@H]1CC[C@H](NC(=O)/C=C/c2ccc(Cl)cc2)CC1)[C@H]1CCc2nc(N)sc2C1
42 | 470 nM | 10900 nM | 5370 | 2 nM |  |  | CCCN(CC[C@H]1CC[C@H](NC(=O)c2ccc(-c3noc(C(C)C)n3)cc2)CC1)[C@H]1CCc2nc(N)sc2C1
